{"source": "ChEMBL document CHEMBL3400114", "about": "“The design, synthesis and biological evaluation of conformationally restricted 4-substituted-2,6-dimethylfuro[2,3-d]pyrimidines as multi-targeted receptor tyrosine kinase and microtubule inhibitors as potential antitumor agents” (Bioorg Med Chem, 2015)", "key": {"[1]": {"system": "SK-MEL-5", "experiment": "Growth inhibition of human SK-MEL-5 cells after 48 hrs by sulforhodamine B assay", "assay_type": "functional", "conditions": "SK-MEL-5, 48 h"}, "[2]": {"experiment": "Growth inhibition of human HCC2998 cells after 48 hrs by sulforhodamine B assay", "assay_type": "functional", "conditions": "HCC 2998, 48 h"}, "[3]": {"system": "NCI/ADR-RES", "experiment": "Growth inhibition of human NCI/ADR-RES cells after 48 hrs by sulforhodamine B assay", "assay_type": "functional"}, "[4]": {"experiment": "Growth inhibition of human OVCAR3 cells after 48 hrs by sulforhodamine B assay", "assay_type": "functional", "conditions": "OVCAR-3, 48 h"}, "[5]": {"experiment": "Growth inhibition of human SF295 cells after 48 hrs by sulforhodamine B assay", "assay_type": "functional", "conditions": "SF-295, 48 h"}, "[6]": {"system": "SF-268", "experiment": "Growth inhibition of human SF268 cells after 48 hrs by sulforhodamine B assay", "assay_type": "functional", "conditions": "SF-268, 48 h"}, "[7]": {"system": "MDA-MB-435", "experiment": "Growth inhibition of human MDA-MB-435 cells after 48 hrs by sulforhodamine B assay", "assay_type": "functional", "conditions": "MDA-MB-435, 48 h"}, "[8]": {"system": "TK-10", "experiment": "Growth inhibition of human TK10 cells after 48 hrs by sulforhodamine B assay", "assay_type": "functional", "conditions": "TK-10, 48 h"}, "[9]": {"system": "M14", "experiment": "Growth inhibition of human M14 cells after 48 hrs by sulforhodamine B assay", "assay_type": "functional", "conditions": "M14, 48 h"}, "[10]": {"system": "NCI-H226", "experiment": "Growth inhibition of human NCI-H226 cells after 48 hrs by sulforhodamine B assay", "assay_type": "functional", "conditions": "NCI-H226, 48 h"}, "[11]": {"system": "HT-29", "experiment": "Growth inhibition of human HT-29 cells after 48 hrs by sulforhodamine B assay", "assay_type": "functional", "conditions": "HT-29, 48 h"}, "[12]": {"experiment": "Growth inhibition of human HOP92 cells after 48 hrs by sulforhodamine B assay", "assay_type": "functional", "conditions": "HOP-92, 48 h"}, "[13]": {"system": "SK-MEL-2", "experiment": "Growth inhibition of human SK-MEL-2 cells after 48 hrs by sulforhodamine B assay", "assay_type": "functional", "conditions": "SK-MEL-2, 48 h"}, "[14]": {"experiment": "Antiangiogenic activity in VEGF-165 and bFGF-stimulated chicken embryo chorioallantoic membrane assessed as inhibition of blood vessel formation after 40 hrs by microscopy", "assay_type": "functional, tissue-based, Gallus gallus"}, "[15]": {"system": "SNB-75", "experiment": "Growth inhibition of human SNB75 cells after 48 hrs by sulforhodamine B assay", "assay_type": "functional", "conditions": "SNB-75, 48 h"}}}
{"smiles": "COc1ccc2c(c1)CCCN2c1nc(C)nc2oc(C)cc12", "values": [{"measurement": "GI50", "setting": "[1]", "value": "< 10", "unit": "nM"}, {"measurement": "GI50", "setting": "[2]", "value": 12, "unit": "nM"}, {"measurement": "GI50", "setting": "[3]", "value": "< 10", "unit": "nM"}, {"measurement": "GI50", "setting": "[4]", "value": "< 10", "unit": "nM"}, {"measurement": "GI50", "setting": "[5]", "value": "< 10", "unit": "nM"}, {"measurement": "GI50", "setting": "[6]", "value": 16.8, "unit": "nM"}, {"measurement": "GI50", "setting": "[7]", "value": "< 10", "unit": "nM"}, {"measurement": "GI50", "setting": "[8]", "value": "< 10", "unit": "nM"}, {"measurement": "GI50", "setting": "[9]", "value": "< 10", "unit": "nM"}, {"measurement": "GI50", "setting": "[10]", "value": 13, "unit": "nM"}, {"measurement": "GI50", "setting": "[11]", "value": "< 10", "unit": "nM"}, {"measurement": "GI50", "setting": "[12]", "value": 58.6, "unit": "nM"}, {"measurement": "GI50", "setting": "[13]", "value": "< 10", "unit": "nM"}, {"measurement": "IC50", "setting": "[14]", "value": 104000, "unit": "nM"}, {"measurement": "GI50", "setting": "[15]", "value": "< 10", "unit": "nM"}]}
